Measured values taken from ChEMBL document CHEMBL1201862, “PubChem BioAssay data set” (2004).
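Compound exposure: 48 hours, 5 concentrations, 96-well plates. GI50 = concentration required for 50% inhibition of growth.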 The source made the active and inactive calls. Rule as the data show it: active = GI50 up to about 1.1 µM and inactive = higher.

What was measured:
Test in all cases: growth of human tumour cells (NCI), 48 h
786-0 = test system: 786-0
A549 = test system: A549
ACHN = test system: ACHN
CCRF-CEM = test system: CCRF-CEM
COLO 205 = test system: COLO 205
HCC 2998 = test system: HCC 2998
HOP-92 = test system: HOP-92
KM12 = test system: KM12
MCF7 = test system: MCF7
OVCAR-3 = test system: OVCAR-3
OVCAR-4 = test system: OVCAR-4
OVCAR-8 = test system: OVCAR-8
SK-OV-3 = test system: SK-OV-3
SW-620 = test system: SW-620
T47D = test system: T47D
U-251 = test system: U-251
HCT-116 = test system: HCT-116
SF-539 = test system: SF-539
SN12C = test system: SN12C
DU-145 = test system: DU-145

Measured: GI50

CCC/C=C/c1cc2c(cc1O)CC[C@@H]1[C@@H]2CC[C@]2(C)[C@@H](O)CC[C@@H]12
inactive: 786-0 15.2 µM | A549 18.1 µM | ACHN 16.7 µM | CCRF-CEM 12 µM | COLO 205 19.1 µM | HCC 2998 21.5 µM | HOP-92 20.3 µM | KM12 17.3 µM | MCF7 25.5 µM | OVCAR-3 19.2 µM | OVCAR-4 19 µM | OVCAR-8 22.9 µM | SK-OV-3 26.8 µM | SW-620 20.6 µM | T47D 24.9 µM | U-251 16.9 µM

CC(C)/C=C1\CCC(CN2CCOCC2)C1=O (stereo not given)
inactive: 786-0 3.66 µM | A549 26.3 µM | ACHN 18 µM | CCRF-CEM 2.65 µM | COLO 205 6.85 µM | HCC 2998 20.2 µM | HCT-116 5.35 µM | HOP-92 18.4 µM | KM12 10.5 µM | OVCAR-3 18.2 µM | OVCAR-4 20.8 µM | OVCAR-8 11.1 µM | SF-539 15.5 µM | SK-OV-3 > 100 µM | SN12C 19.3 µM | SW-620 2.7 µM | U-251 > 42.4 µM

COc1cccc(/C=C2/Sc3scc(-c4ccccc4)[n+]3C2=O)c1O
inactive: 786-0 15.2 µM | A549 38.8 µM | ACHN 18.4 µM | CCRF-CEM 4.9 µM | COLO 205 31.8 µM | DU-145 22.1 µM | HCC 2998 16.6 µM | HCT-116 14.9 µM | HOP-92 15.3 µM | KM12 18.6 µM | MCF7 15.5 µM | OVCAR-3 26.6 µM | OVCAR-4 29.6 µM | OVCAR-8 17.5 µM | SF-539 16.1 µM | SK-OV-3 22.3 µM | SN12C 17.9 µM | SW-620 18.1 µM | U-251 19.6 µM

C[Si](C)(C)c1ccc(CC2(Cc3ccc([Si](C)(C)C)cc3)CCNC2)cc1
inactive: 786-0 1.77 µM | A549 2.29 µM | ACHN 3.18 µM | CCRF-CEM 4.67 µM | COLO 205 1.8 µM | HCC 2998 2.11 µM | HCT-116 1.69 µM | HOP-92 1.74 µM | KM12 1.99 µM | OVCAR-3 1.97 µM | OVCAR-4 2.1 µM | OVCAR-8 1.85 µM | SF-539 3.34 µM | SK-OV-3 1.63 µM | SN12C 1.71 µM | SW-620 1.86 µM | U-251 1.66 µM

CC(C)(C)OC(=O)CN1CCNCCN(CC(=O)OC(C)(C)C)CCNCC1
inactive: 786-0 > 100 µM | A549 82 µM | ACHN > 100 µM | CCRF-CEM 57 µM | COLO 205 > 100 µM | DU-145 > 100 µM | HCC 2998 > 100 µM | HCT-116 26.2 µM | HOP-92 > 100 µM | KM12 98.9 µM | MCF7 > 100 µM | OVCAR-3 > 100 µM | OVCAR-4 > 100 µM | OVCAR-8 > 100 µM | SF-539 > 100 µM | SK-OV-3 > 100 µM | SN12C > 100 µM | SW-620 > 100 µM | U-251 78.2 µM

CCOC(=O)N/N=C(\Cc1ccccc1)OCC
inactive: 786-0 > 100 µM | A549 > 100 µM | ACHN > 100 µM | CCRF-CEM > 100 µM | COLO 205 > 100 µM | DU-145 > 100 µM | HCC 2998 > 100 µM | HCT-116 > 100 µM | HOP-92 > 100 µM | KM12 > 100 µM | MCF7 > 100 µM | OVCAR-3 > 100 µM | OVCAR-4 > 100 µM | OVCAR-8 > 100 µM | SF-539 > 100 µM | SK-OV-3 > 100 µM | SN12C > 100 µM | SW-620 > 100 µM | U-251 > 100 µM

COc1ccc(/C=C/c2cc(OC)c(O[Si](C)(C)C(C)(C)C)c(OC)c2)cc1
inactive: 786-0 > 100 µM | A549 > 100 µM | ACHN > 100 µM | CCRF-CEM 58.7 µM | COLO 205 > 100 µM | HCC 2998 > 100 µM | HCT-116 55.6 µM | HOP-92 29.9 µM | KM12 > 100 µM | OVCAR-3 > 100 µM | OVCAR-4 49.9 µM | OVCAR-8 > 100 µM | SF-539 > 100 µM | SK-OV-3 > 100 µM | SN12C > 100 µM | SW-620 > 100 µM | U-251 98.6 µM

O=C1C(Cl)C(c2ccc(O)cc2)N1n1cnc2ccccc2c1=O (stereo not given)
inactive: 786-0 28.8 µM | A549 > 100 µM | ACHN 16 µM | CCRF-CEM 26.3 µM | COLO 205 25.3 µM | HCC 2998 61.8 µM | HCT-116 17.1 µM | HOP-92 38.2 µM | KM12 51.1 µM | OVCAR-3 32 µM | OVCAR-4 25.5 µM | OVCAR-8 16.1 µM | SF-539 31.9 µM | SK-OV-3 > 100 µM | SN12C 35.2 µM | SW-620 22.5 µM | U-251 45.4 µM

O=C1c2ccccc2-c2nc3ccc(O)cc3n21
inactive: 786-0 > 100 µM | A549 > 100 µM | ACHN > 100 µM | CCRF-CEM > 100 µM | COLO 205 > 100 µM | DU-145 > 100 µM | HCC 2998 > 100 µM | HCT-116 > 100 µM | HOP-92 > 100 µM | KM12 > 100 µM | MCF7 > 100 µM | OVCAR-3 > 100 µM | OVCAR-4 > 100 µM | OVCAR-8 > 100 µM | SF-539 > 100 µM | SK-OV-3 > 100 µM | SN12C > 100 µM | SW-620 > 100 µM | U-251 > 100 µM

CC1(C)CC(=O)C(=CNC(=O)c2ccncc2)C(=O)C1
inactive: 786-0 > 100 µM | A549 > 100 µM | ACHN > 100 µM | CCRF-CEM > 100 µM | COLO 205 > 100 µM | DU-145 > 100 µM | HCC 2998 > 100 µM | HCT-116 > 100 µM | HOP-92 > 100 µM | KM12 > 100 µM | MCF7 > 100 µM | OVCAR-3 > 100 µM | OVCAR-4 > 100 µM | OVCAR-8 > 100 µM | SF-539 > 100 µM | SK-OV-3 > 100 µM | SN12C > 100 µM | SW-620 > 100 µM | U-251 > 100 µM

CC(=O)Oc1cc(OC(C)=O)c2c(C)cc(=O)oc2c1
inactive: 786-0 > 100 µM | A549 > 100 µM | ACHN > 100 µM | CCRF-CEM > 100 µM | COLO 205 > 100 µM | DU-145 > 100 µM | HCT-116 > 100 µM | KM12 > 100 µM | MCF7 76.2 µM | OVCAR-3 > 100 µM | OVCAR-4 > 100 µM | OVCAR-8 > 100 µM | SF-539 36.1 µM | SK-OV-3 > 100 µM | SN12C > 100 µM | SW-620 > 100 µM | U-251 > 100 µM

CC(C)(C)OC(=O)NC(Cc1ccc(O)cn1)C(N)=O (stereo not given)
inactive: 786-0 > 100 µM | A549 > 100 µM | ACHN > 100 µM | CCRF-CEM > 10 µM | COLO 205 > 100 µM | DU-145 > 100 µM | HCC 2998 > 100 µM | HCT-116 > 100 µM | HOP-92 > 100 µM | KM12 > 100 µM | MCF7 > 100 µM | OVCAR-3 > 100 µM | OVCAR-4 > 100 µM | OVCAR-8 > 100 µM | SF-539 > 100 µM | SN12C > 100 µM | SW-620 > 100 µM | U-251 > 100 µM

O=C(Cc1ccccc1)c1ccc2[nH]c(=O)oc2c1
inactive: 786-0 87.3 µM | ACHN 41.4 µM | CCRF-CEM > 100 µM | COLO 205 66.2 µM | DU-145 62.2 µM | HCT-116 43.8 µM | KM12 19 µM | MCF7 43.5 µM | OVCAR-3 35.2 µM | OVCAR-8 23.2 µM | SF-539 32.2 µM | SK-OV-3 76.2 µM | SN12C > 100 µM | SW-620 52.1 µM | U-251 16.8 µM

CC(C)(C)c1cc(CC2C(=O)c3ccccc3C2=O)cc(C(C)(C)C)c1O
inactive: 786-0 3.9 µM | A549 8.59 µM | ACHN 9.51 µM | CCRF-CEM 4.04 µM | COLO 205 3.6 µM | DU-145 2.45 µM | HCT-116 2.24 µM | KM12 3.51 µM | MCF7 3.66 µM | OVCAR-3 2.89 µM | OVCAR-4 4.08 µM | OVCAR-8 3.05 µM | SF-539 3.65 µM | SK-OV-3 2.44 µM | SN12C 4.11 µM | SW-620 2.51 µM | U-251 3.87 µM
active: HOP-92 0.272 µM

O=[N+]([O-])c1ccc(C2CC(c3ccc(NCc4nc5ccccc5[nH]4)cc3)=NO2)cc1 (stereo not given)
inactive: 786-0 39.6 µM | A549 98.2 µM | ACHN 33.3 µM | CCRF-CEM 15.6 µM | COLO 205 > 100 µM | HCC 2998 85.5 µM | HCT-116 27.4 µM | HOP-92 > 100 µM | KM12 21.1 µM | OVCAR-3 3.56 µM | OVCAR-4 14.3 µM | OVCAR-8 37.7 µM | SF-539 > 100 µM | SK-OV-3 > 100 µM | SN12C 30.7 µM | SW-620 33.5 µM | U-251 36.4 µM

CC(=O)OCc1nc(C#N)c(N)o1
inactive: 786-0 > 100 µM | ACHN > 100 µM | CCRF-CEM > 100 µM | COLO 205 > 100 µM | DU-145 > 100 µM | HCC 2998 > 100 µM | HCT-116 > 100 µM | HOP-92 > 100 µM | KM12 > 100 µM | MCF7 > 100 µM | OVCAR-3 > 100 µM | OVCAR-4 > 100 µM | SK-OV-3 > 100 µM | SN12C > 100 µM | SW-620 > 100 µM | U-251 > 100 µM
